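Method: 48-hour compound exposure of cells in 96-well plates, five concentrations, linear interpolation of endpoints. Here, GI50 denotes the concentration required for 50% inhibition of growth. TGI is the concentration that stops growth completely.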
Assays:
Assay in all cases: inhibition of tumour cell growth, NCI panel, 48 h
DU-145 prostate = tested on: DU-145 prostate
UACC-62 melanoma = tested on: UACC-62 melanoma
CCRF-CEM leukemia = tested on: CCRF-CEM leukemia
SN12C renal = tested on: SN12C renal
TK-10 renal = tested on: TK-10 renal
OVCAR-4 ovarian = tested on: OVCAR-4 ovarian
SK-MEL-5 melanoma = tested on: SK-MEL-5 melanoma
MCF7 breast = tested on: MCF7 breast
NCI-H522 lung = tested on: NCI-H522 lung
NCI/ADR-RES ovarian = tested on: NCI/ADR-RES ovarian

O=C1Nc2ccccc2C1(c1ccc(O)c(F)c1)c1ccc(O)c(F)c1
GI50 (DU-145 prostate): 11.9 µM | TGI (DU-145 prostate): 42.7 µM | GI50 (UACC-62 melanoma): 10.2 µM | TGI (UACC-62 melanoma): 33.7 µM | GI50 (CCRF-CEM leukemia): 17.8 µM | TGI (CCRF-CEM leukemia): 73.3 µM | GI50 (SN12C renal): 0.353 µM | TGI (SN12C renal): 12.2 µM | GI50 (TK-10 renal): 0.409 µM | TGI (TK-10 renal): 11.3 µM | GI50 (OVCAR-4 ovarian): 0.237 µM | TGI (OVCAR-4 ovarian): 0.659 µM | GI50 (SK-MEL-5 melanoma): 14.7 µM | TGI (SK-MEL-5 melanoma): 29.9 µM | GI50 (MCF7 breast): 0.27 µM | TGI (MCF7 breast): 2.81 µM | GI50 (NCI-H522 lung): 11.5 µM | TGI (NCI-H522 lung): 31.3 µM | GI50 (NCI/ADR-RES ovarian): 0.389 µM | TGI (NCI/ADR-RES ovarian): > 100 µM

Reference: PubChem BioAssay (NCI)
